Test system: P12-Ichikawa
Assay: cell viability relative to DMSO control; higher = less cytotoxic
Conditions: 48 h
Procedure, shortened: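 Viability values are per-plate percentages of DMSO wells, with background from cell-free wells. Library compounds in DMSO were pin-dosed, in an 11-point threefold series from 47 μM to 0.79 nM, onto NOMO1 or SEM (500 cells/well) or P12-Ichikawa (1000 cells/well) leukemia cells in 1536-well plates (5 μl). Those cells had been adapted for at least four passages in each medium, and CellTiter-Glo One luminescence was read after 48 h at 37°C.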

[1] = HPLM + 10% dialyzed FBS, 0.000781 µM
[2] = HPLM + 10% dialyzed FBS, 0.00234 µM
[3] = HPLM + 10% dialyzed FBS, 0.00702 µM
[4] = HPLM + 10% dialyzed FBS, 0.0211 µM
[5] = HPLM + 10% dialyzed FBS, 0.0632 µM
[6] = HPLM + 10% dialyzed FBS, 0.19 µM
[7] = HPLM + 10% dialyzed FBS, 0.569 µM
[8] = HPLM + 10% dialyzed FBS, 1.71 µM
[9] = HPLM + 10% dialyzed FBS, 5.12 µM
[10] = HPLM + 10% dialyzed FBS, 15.4 µM
[11] = HPLM + 10% dialyzed FBS, 46.1 µM
[12] = RPMI 5 mM glucose + 10% FBS, 0.000781 µM
[13] = RPMI 5 mM glucose + 10% FBS, 0.00234 µM
[14] = RPMI 5 mM glucose + 10% FBS, 0.00702 µM
[15] = RPMI 5 mM glucose + 10% FBS, 0.0211 µM
[16] = RPMI 5 mM glucose + 10% FBS, 0.0632 µM
[17] = RPMI 5 mM glucose + 10% FBS, 0.19 µM
[18] = RPMI 5 mM glucose + 10% FBS, 0.569 µM
[19] = RPMI 5 mM glucose + 10% FBS, 1.71 µM
[20] = RPMI 5 mM glucose + 10% FBS, 5.12 µM
[21] = RPMI 5 mM glucose + 10% FBS, 15.4 µM
[22] = RPMI 5 mM glucose + 10% FBS, 46.1 µM
[23] = RPMI 5 mM glucose + 10% dialyzed FBS, 0.000781 µM
[24] = RPMI 5 mM glucose + 10% dialyzed FBS, 0.00234 µM
[25] = RPMI 5 mM glucose + 10% dialyzed FBS, 0.00702 µM
[26] = RPMI 5 mM glucose + 10% dialyzed FBS, 0.0211 µM
[27] = RPMI 5 mM glucose + 10% dialyzed FBS, 0.0632 µM
[28] = RPMI 5 mM glucose + 10% dialyzed FBS, 0.19 µM
[29] = RPMI 5 mM glucose + 10% dialyzed FBS, 0.569 µM
[30] = RPMI 5 mM glucose + 10% dialyzed FBS, 1.71 µM
[31] = RPMI 5 mM glucose + 10% dialyzed FBS, 5.12 µM
[32] = RPMI 5 mM glucose + 10% dialyzed FBS, 15.4 µM
[33] = RPMI 5 mM glucose + 10% dialyzed FBS, 46.1 µM

SMILES | cell viability [1] | cell viability [2] | cell viability [3] | cell viability [4] | cell viability [5] | cell viability [6] | cell viability [7] | cell viability [8] | cell viability [9] | cell viability [10] | cell viability [11] | cell viability [12] | cell viability [13] | cell viability [14] | cell viability [15] | cell viability [16] | cell viability [17] | cell viability [18] | cell viability [19] | cell viability [20] | cell viability [21] | cell viability [22] | cell viability [23] | cell viability [24] | cell viability [25] | cell viability [26] | cell viability [27] | cell viability [28] | cell viability [29] | cell viability [30] | cell viability [31] | cell viability [32] | cell viability [33]
FC(F)c1nc2ccccc2n1-c1nc(N2CCOCC2)nc(N2CCOCC2)n1 | 98.2% | 108% | 107% | 104% | 101% | 91.4% | 85.4% | 78.5% | 83.8% | 81.9% | 59.1% | 98% | 104% | 96% | 85.4% | 92.8% | 71% | 64.7% | 58.9% | 61.1% | 58.7% | 58% | 106% | 94.5% | 103% | 102% | 95.3% | 92.6% | 75.7% | 54.4% | 63.5% | 64.8% | 55.8%
O=C(Nc1cc2cc[nH]c2cn1)c1ccccc1 | 95% | 90.7% | 109% | 112% | 113% | 109% | 111% | 106% | 5.06% | 1.54% | -0.599% | 93.1% | 113% | 111% | 114% | 119% | 130% | 109% | 104% | 90.4% | 45.8% | 1.1% | 79.4% | 101% | 102% | 104% | 99.7% | 102% | 103% | 101% | 58.2% | 7.54% | 1.18%
CNC1CCC(N(Cc2cccc(-c3ccncc3)c2)C(=O)c2sc3c(F)ccc(F)c3c2Cl)CC1 (stereo unspecified) | 87.6% | 101% | 106% | 105% | 107% | 109% | 104% | 114% | 101% | 99.3% | 71.4% | 92.9% | 109% | 98.2% | 104% | 110% | 105% | 108% | 100% | 106% | 94.9% | 72.8% | 92.8% | 102% | 105% | 105% | 97.5% | 105% | 106% | 94.3% | 103% | 93.6% | 55.3%
COc1cc2c(cc1OC)CC(=O)N(CCCN(C)C[C@H]1Cc3cc(OC)c(OC)cc31)CC2.Cl | 108% | 111% | 111% | 108% | 104% | 120% | 113% | 114% | 116% | 108% | 106% | 97.5% | 106% | 115% | 113% | 109% | 111% | 110% | 102% | 109% | 104% | 106% | 104% | 104% | 114% | 115% | 113% | 111% | 102% | 97.3% | 108% | 98.1% | 100%
CN[C@@H]1[C@H](O)[C@H](NC)[C@H]2O[C@@]3(O)C(=O)C[C@@H](C)O[C@H]3O[C@@H]2[C@H]1O | 118% | 117% | 124% | 115% | 118% | 116% | 114% | 111% | 114% | 101% | 98.4% | 109% | 117% | 126% | 120% | 117% | 113% | 105% | 106% | 106% | 105% | 97.5% | 122% | 121% | 115% | 116% | 106% | 116% | 117% | 106% | 114% | 107% | 101%
Cc1cn([C@@H]2O[C@H](CO)[C@@H](O)[C@@H]2F)c(=O)[nH]c1=O | 103% | 112% | 116% | 122% | 116% | 122% | 132% | 124% | 126% | 122% | 123% | 101% | 115% | 116% | 120% | 124% | 127% | 119% | 129% | 130% | 123% | 17.6% | 97% | 110% | 111% | 113% | 121% | 126% | 121% | 123% | 123% | 127% | 64.6%
O=C(Nc1c(Cl)cncc1Cl)c1ccc(OC(F)F)c(OCC2CC2)c1 | 101% | 112% | 118% | 105% | 114% | 113% | 111% | 115% | 117% | 108% | 104% | 103% | 116% | 111% | 115% | 122% | 121% | 119% | 106% | 110% | 106% | 106% | 96.8% | 107% | 100% | 108% | 106% | 108% | 114% | 111% | 113% | 109% | 105%
NC/1=N/C2=C([NH]C=N2)C(=S)N1 | 113% | 122% | 116% | 123% | 123% | 121% | 120% | 119% | 98.2% | 94.2% | 28.9% | 119% | 120% | 124% | 116% | 131% | 130% | 116% | 119% | 96% | 88.1% | 21.2% | 105% | 117% | 124% | 122% | 125% | 112% | 118% | 110% | 79% | 59.7% | 11.1%
C[C@@]12C[C@@]3(O)O[C@@H](O1)[C@]1(COC(=O)c4ccccc4)[C@H]3C[C@@]12O[C@@H]1O[C@H](CO)[C@@H](O)[C@H](O)[C@H]1O | 91.3% | 96% | 103% | 100% | 110% | 99.5% | 103% | 108% | 109% | 97.5% | 76.7% | 94.9% | 99.4% | 111% | 111% | 118% | 105% | 108% | 116% | 118% | 113% | 112% | 89.8% | 95.4% | 103% | 110% | 105% | 97.4% | 108% | 104% | 103% | 110% | 101%
C/C=C(/C)C(=O)O[C@H]1C(C)=C[C@]23C(=O)[C@@H](C=C(CO)[C@@H](O)[C@]12O)[C@H]1[C@@H](C[C@H]3C)C1(C)C | 111% | 122% | 106% | 99.1% | 96.8% | 90.6% | 87% | 97.2% | 97.3% | 79.7% | 81.4% | 122% | 131% | 99.8% | 87.9% | 79.7% | 79.2% | 82.3% | 82.4% | 78.2% | 77.8% | 74.9% | 116% | 122% | 101% | 94.6% | 89.9% | 81.6% | 79% | 82.6% | 86.7% | 81.1% | 70.6%
COCCCN1CCC(NC(=O)c2cc(Cl)c(N)c3c2OCC3)CC1 | 114% | 124% | 127% | 132% | 132% | 134% | 134% | 133% | 146% | 132% | 124% |  |  |  |  |  |  |  |  |  |  |  |  |  |  |  |  |  |  |  |  |  | 
OC1CCC(Nc2ncc3nc(Nc4c(F)cc(F)cc4F)n([C@@H]4CCOC4)c3n2)CC1 (stereo partly specified) | 111% | 114% | 115% | 117% | 119% | 126% | 127% | 124% | 120% | 117% | 114% | 113% | 123% | 114% | 119% | 127% | 122% | 134% | 127% | 120% | 118% | 123% | 111% | 117% | 114% | 120% | 117% | 117% | 127% | 119% | 126% | 121% | 114%
O=C(Nc1ccc(F)c(C(F)(F)F)c1)Nc1nnc(-c2ccncc2)s1 | 125% | 121% | 119% | 115% | 129% | 112% | 120% | 115% | 119% | 111% | 100% | 113% | 127% | 125% | 109% | 112% | 114% | 114% | 118% | 113% | 111% | 99.5% | 115% | 121% | 129% | 113% | 123% | 120% | 127% | 115% | 114% | 106% | 113%
CN(NC(=O)CC(=O)NN(C)C(=S)c1ccccc1)C(=S)c1ccccc1 | 90.7% | 88.6% | 91.7% | 88.1% | 58.8% | 31.4% | 4.03% | 3.29% | 3.87% | 4.02% | 38.3% | 75.8% | 86.9% | 86.6% | 90.8% | 56.8% | 24.1% | 2.71% | 2.73% | 3.65% | 3.06% | 42.1% | 92.4% | 89.9% | 102% | 101% | 58.4% | 20.1% | 3.2% | 2.92% | 3.18% | 3.13% | 31.3%
O=C(Nc1ccccc1-c1cn2c(CN3CCNCC3)csc2n1)c1cnc2ccccc2n1 | 84.5% | 89.8% | 89.3% | 84.4% | 90.1% | 88.3% | 85.3% | 84.5% | 83.9% | 75.3% | 0.861% | 80.4% | 85.3% | 83.6% | 85.2% | 86.5% | 86.1% | 79.8% | 76.2% | 82.9% | 67.9% | 1.29% | 83% | 84% | 80.3% | 80.5% | 78.1% | 87.4% | 78.4% | 78.7% | 77.8% | 69% | 1.1%
FC1=CC=C(SC/2=N/N3\C=N/C(=O)/C(=C3/C=C2)C4=C(Cl)C=CC=C4Cl)C(=C1)F | 100% | 104% | 114% | 108% | 114% | 102% | 117% | 114% | 114% | 94.9% | 33.6% | 105% | 101% | 95.7% | 108% | 106% | 104% | 106% | 98.6% | 93.4% | 66.2% | 24.8% | 96.4% | 104% | 110% | 104% | 107% | 107% | 105% | 120% | 105% | 86% | 38.1%

Reference: the supplement of paper PMC11451515
